# Test results reported in patent US11352350B2, “IRAK degraders and uses thereof” (Kymera Therapeutics, Inc., priority 2018, dated 2022).
# pIC50: −log10 of the molar value. Where two headings read alike, the source gives them in different places.
# Key:
# IRAK4 [1] = molecular target: T1, IRAK4 (Homo sapiens (Human), UniProt Q9NWZ3); assay: IRAK4 degradation in human whole blood lymphocyte - flow cytometry; type: cell-based; conditions: read-out: IRAK4 degradation in whole blood lymphocyte-Flow cytometry: Average external Abs IC50
# T1 sequence (Q9NWZ3 whole entry): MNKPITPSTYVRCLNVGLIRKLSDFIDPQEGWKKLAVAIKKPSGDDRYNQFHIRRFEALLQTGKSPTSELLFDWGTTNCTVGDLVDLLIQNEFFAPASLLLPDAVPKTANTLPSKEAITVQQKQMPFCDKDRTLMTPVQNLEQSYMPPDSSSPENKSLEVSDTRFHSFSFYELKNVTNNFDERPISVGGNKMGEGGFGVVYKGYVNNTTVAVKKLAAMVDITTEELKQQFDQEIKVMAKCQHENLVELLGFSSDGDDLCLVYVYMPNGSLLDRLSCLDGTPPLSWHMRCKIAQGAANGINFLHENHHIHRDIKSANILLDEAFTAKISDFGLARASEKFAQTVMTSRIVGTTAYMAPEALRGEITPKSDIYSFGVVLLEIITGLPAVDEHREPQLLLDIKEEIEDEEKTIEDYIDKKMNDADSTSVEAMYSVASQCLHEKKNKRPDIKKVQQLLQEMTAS
# Protocol: (§1) Human whole blood IRAK4 degradation flow assay. Whole blood was collected in heparinized tubes and plated on the same day as draw (day 0). Whole blood was aliquoted into deep well plates. Compound plates were prepared and a 10 point, 5-fold dilution was performed with a final DMSO concentration of 0.1%. Compound was added to whole blood deep well plate, sealed and incubated at 37° C., 5% CO2 for 20 hours (for 4 hour treatment, compounds were prepared and added the following day). Following the treatment incubation period (day 1), BD lyse fix (BD #558049) was added to the whole blood plate, placed on plate shaker for 30 seconds and incubated for 10 mins at room temperature. Whole blood was then spun down and washed two times with PBS/0.5% BSA, aspirated to pellet and placed into −80° C. freezer until further processing for flow. On the flow run day, whole blood plates were thawed and samples were transferred to PCR plates. The pre-perm staining cocktail (CD3 Ax488/CD8 BUV805/CD14 BUV395/CD16/56 BV711/CD19 BV785) was added to samples and incubated for 30 minutes at room temperature. Samples were washed two times and permeabilized with Methanol for 10 minutes at 4° C. Samples were washed two times and the post-perm staining cocktail (CD4 PE/IRAK4 Ax647 BD #560315) was added and incubated for 30 minutes at room temperature. Samples were washed two times with PBS/BSA and run on a BD LSRFortessa. Mononuclear cells are gated by SSCH/FSCH and single cells. Monocytes are then gated through CD14 positive gate and lymphocytes are gated through CD14 negative gate. To determine absolute DC50 and max degradation values, MFI values were normalized to DMSO max and 20 hour 10 μM min control. Twenty hour dose curves were calculated using a 4 parameter logistic regression curve fit, no constraints (Top doses were removed if hook effects were observed and the bottom was constrained to 0).
# OCI-LY10 = assay: CTG Cell Viability Assay - OCI-LY10; type: cell-based, human; conditions: OCI-LY10, 4 days, read-out: CTG Cell Viability Assay - OCI-LY10: Average external-IC50
# Procedure, shortened: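 OCI-LY10 cells exposed to 9-dose, 1:3 dilutions from 10 μM top (0.2% DMSO) for 4 days at 37° C, 5% CO2. Viability by CellTiter-Glo luminescence; IC50 from three-parameter logistic fit.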
# IRAK4 [2] = molecular target: T1, IRAK4; assay: IRAK4 degradation in human whole blood monocyte - flow cytometry; type: cell-based; conditions: read-out: IRAK4 degradation in whole blood monocyte-Flow cytometry: Average external Abs IC50
# Protocol: as §1
# TNFα [3] = assay: Human PBMC LPS TNFα assay; type: cell-based; conditions: hPBMC, LPS stimulation, read-out: IRAK4 hPBMC LPS TNF-α inhibition: Average external-IC50
# Protocol: Human PBMC LPS TNFα assay. Frozen PBMCs were thawed into RPMI with 10% FBS/1% penicillin/streptomycin and same day plated into 96 well plates at 200,000 PBMC/[…] media per well. Compound plates were prepared in DMSO with D300 cassette as 8-point dose curves in duplicate, starting dose 2 μM, 5-fold. Compounds are added 200 nL into cells for final 200 μL per well. Compound and cells were incubated at 37° C., 5% CO2 for 20 hours. After twenty hours of pretreatment with the compounds, LPS (01 1 1:B4) (Sigma #L2637) was added at 100 ng/ml final concentration and PBMCs incubated an additional five hours at 37° C., 5% CO2. Following assay completion, PBMC plates were spun down at 2000 rpm for 10 minutes. 100 uL of supernatant was carefully removed and placed into a new 96 well Costar (#3879) plate and stored at −80° C. until further analysis. Meso scale Discovery (MSD) human V-plex assays were used to measure cytokine levels. On day of cytokine analysis, supernatant samples were thawed, diluted with V-plex diluent #2, and directly to MSD plates. Assay was further completed per standard manufacturer's protocol. Cytokine data was normalized to LPS stimulated and unstimulated controls. Prism Graphpad was used to generate IC50 using 4 parameter logistic regression curve, free-fit.
# IRAK4 [4] = molecular target: T1, IRAK4; assay: IRAK4 MSD degradation in OCI-LY10; type: cell-based; conditions: MSD
# Procedure, shortened: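 OCI-LY10 cells treated with 8-point 1:3 dilutions (top 1 to 10 μM final) for 4 to 24 h at 37° C. Lysate IRAK4 measured by MSD sandwich immunoassay (2H9 capture, Y279 detection, SULFO-TAG anti-rabbit). DC50 from three-parameter logistic fit.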
# TNFα [5] = assay: Human whole blood LPS TNFα assay; type: cell-based; conditions: 20 h pretreatment, LPS 5 h, read-out: IRAK4 human whole blood LPS TNFa inhibition: Average external-IC50
# Protocol: Human Whole blood LPS TNFα assay. Whole blood was collected fresh and plated same day into 96 well plates at 180 μL per well. Compound plates were prepared in DMSO as 8-point dose curves in duplicate, starting dose 2 μM, 5-fold. Compounds are added 20 μL into blood for final 200 μL per well. Compound and cells were incubated at 37° C., 5% CO2 for 20 hours. After twenty hours of pretreatment with the compounds, LPS (01 1 1:B4) (Sigma #L2637) was added at 100 ng/ml final concentration and blood incubated an additional five hours at 37° C., 5% CO2. Following assay completion, whole blood plates were spun down at 2000 rpm for 15 minutes at 4° C. 50 μL of plasma was carefully removed and placed into a new 96 well Costar (#3879) plate and stored at −80° C. until further analysis. Meso scale Discovery (MSD) human V-plex assays were used to measure cytokine levels. On day of cytokine analysis, plasma samples were thawed, diluted with V-plex diluent #2, and directly to MSD plates. Assay was further completed per standard manufacturer's protocol. Cytokine data was normalized to LPS stimulated and unstimulated controls. Prism Graphpad was used to generate IC50 using 4 parameter logistic regression curve, free-fit.
# [6] = OCI-LY10, 4 hrs, read-out: IRAK4 MSD degradation in OCI-LY10 at 4 hrs: Average external-Abs DC50
Compound,DC50 (IRAK4 [1]) [nM],"pIC50 (OCI-LY10; Homo sapiens, OCI-Ly10, 96 h)",DC50 (IRAK4 [2]) [nM],pIC50 (TNFα [3]),DC50 (IRAK4 [4]; [6]) [nM],pIC50 (TNFα [5]),"DC50 (IRAK4 [4]; OCI-LY10, 24 hrs, read-out: IRAK4 MSD degradation in OCI-LY10 at 24 hrs: Average external-Abs DC50) [nM]",pIC50 (IRAK4 [2]),pIC50 (OCI-LY10)
CN(C[C@@H]1CN(CCCc2ccc3c(c2)n(C)c(=O)n3C2CCC(=O)NC2=O)CCO1)C[C@H]1CC[C@H](n2cc(NC(=O)c3coc(-c4ccnc(NCC5CC5)c4)n3)c(C(C)(C)O)n2)CC1 (some centres unmarked) [I-33],< 50,< 6.00,500 to 1000,6.00 to 6.30,< 10,–,–,–,–
CN(CCCCOCCCCc1cccc2c1n(C)c(=O)n2C1CCC(=O)NC1=O)C[C@H]1CC[C@H](n2cc(NC(=O)c3coc(-c4ccnc(NCC5CC5)c4)n3)c(C(F)F)n2)CC1 (some centres unmarked) [I-67],50 to 100,> 7.30,50 to 100,7.00 to 7.30,< 10,–,–,–,–
NC(=O)c1nn([C@H]2CC[C@H](CNCCCOCCCc3cccc4c3oc(=O)n4C3CCC(=O)NC3=O)CC2)cc1NC(=O)c1coc(-c2ccnc(NCC(F)(F)F)c2)n1 (some centres unmarked) [I-12],100 to 500,6.00 to 6.30,500 to 1000,–,10 to 100,6.00 to 6.30,–,–,–
Cn1c(=O)n(C2CCC(=O)NC2=O)c2cccc(CCCOCCOCCNC(=O)[C@H]3CC[C@H](n4cc(NC(=O)c5coc(-c6ccnc(NCC7CC7)c6)n5)c(C(F)F)n4)CC3)c21 (some centres unmarked) [I-1],100 to 500,7.00 to 7.30,100 to 500,–,< 10,–,10 to 100,–,–
O=C1CCC(n2c(=O)oc3c(CCCOCCNC(=O)[C@H]4CC[C@H](n5cc(NC(=O)c6coc(-c7ccnc(NCC8CC8)c7)n6)c(C(F)F)n5)CC4)cccc32)C(=O)N1 (some centres unmarked) [I-5],100 to 500,> 7.30,100 to 500,–,< 10,< 6.00,–,–,–
O=C1CCC(n2c3cc(CCCOCCOCCNC[C@H]4CC[C@H](n5cc(NC(=O)c6coc(-c7ccnc(NCC8CC8)c7)n6)c(C(F)F)n5)CC4)ccc3c3cccnc32)C(=O)N1 (some centres unmarked) [I-81],> 1000,< 6.00,–,6.00 to 6.30,100 to 1000,–,–,< 6.00,–
"CN(CCCOCCCc1cccc2c1n(C)c(=O)n2C1CCC(=O)NC1=O)C(=O)[C@H]1CC[C@H](n2cc(NC(=O)c3coc(-c4ccnc(NCC(F)(F)F)c4)n3)c(C(N)=O)n2)CC1 (some centres unmarked) [I-28, N-[3-carbamoyl-1-[4-[3-[3-[1-(2,6-dioxo-3-piperidyl)-3-methyl-2-oxo-benzimidazol-4-yl]propoxy]propyl-methylcarbamoyl]cyclohexyl]pyrazol-4-yl]-2-[2-(2,2,2-trifluoroethylamino)-4-pyridyl]oxazole-4-carboxamide]",100 to 500,–,50 to 100,–,< 10,< 6.00,–,–,> 7.30
Cn1c(=O)n(C2CCC(=O)NC2=O)c2ccc(CCCOCCNC[C@H]3CC[C@H](n4cc(NC(=O)c5coc(-c6ccnc(NCC(F)(F)F)c6)n5)c(C(N)=O)n4)CC3)cc21 (some centres unmarked) [I-8],< 50,< 6.00,–,–,10 to 100,< 6.00,–,> 7.30,–
O=C1CCC(n2c(=O)oc3cc(CCCOCCOCCNC[C@H]4CC[C@H](n5cc(NC(=O)c6coc(-c7ccnc(NCC8CC8)c7)n6)c(C(F)F)n5)CC4)ccc32)C(=O)N1 (some centres unmarked) [I-3],< 50,< 6.00,–,–,< 10,–,–,> 7.30,–
